Assay results: ChEMBL document CHEMBL1201862, “PubChem BioAssay data set” (2004)
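Five concentrations, 48 hours, 96-well plates. Here, GI50 denotes the concentration required for 50% inhibition of growth.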 Activity calls are given as the source filed them. Rule as the data show it: active = GI50 up to about 1.1 µM and inactive = higher.

Columns and labels:
Assay in all cases: inhibition of tumour cell growth, NCI panel, 48 h
SN12C = system: SN12C
SK-MEL-2 = system: SK-MEL-2
SW-620 = system: SW-620
COLO 205 = system: COLO 205
HOP-92 = system: HOP-92
Malme-3M = system: Malme-3M
HL-60 = system: HL-60
SF-539 = system: SF-539
OVCAR-3 = system: OVCAR-3
K562 = system: K562
M14 = system: M14
UO-31 = system: UO-31
HCC 2998 = system: HCC 2998
NCI-H226 = system: NCI-H226
MCF7 = system: MCF7
BT-549 = system: BT-549
NCI-H23 = system: NCI-H23
MDA-MB-231 = system: MDA-MB-231
SK-MEL-5 = system: SK-MEL-5

For `O=C1c2ccncc2C(=O)c2c(O)ccc(O)c21`, the GI50 (SN12C) was 4.73 µM (inactive), the GI50 (SK-MEL-2) was 8.05 µM (inactive) and the GI50 (SW-620) was 2.89 µM (inactive). The GI50 (COLO 205) was 3.72 µM (inactive), the GI50 (HOP-92) was 17.7 µM (inactive) and the GI50 (Malme-3M) was 1.69 µM (inactive). The GI50 (HL-60) was 2.22 µM (inactive), the GI50 (SF-539) was 3.89 µM (inactive) and the GI50 (OVCAR-3) was 1.95 µM (inactive). The GI50 (K562) was 10.1 µM (inactive), the GI50 (M14) was 4.65 µM (inactive) and the GI50 (UO-31) was 16.2 µM (inactive). The GI50 (HCC 2998) was 4.92 µM (inactive) and the GI50 (NCI-H226) was 15.7 µM (inactive).

For `O=c1[nH]c(N/N=C\C(O)C(O)C(O)C(O)CO)nc2ccccc12` (centres undefined), the GI50 (SN12C) was > 100 µM (inactive), the GI50 (SK-MEL-2) was > 100 µM (inactive) and the GI50 (SW-620) was > 100 µM (inactive). For the same compound, the GI50 (MCF7) was > 100 µM (inactive), the GI50 (COLO 205) was > 100 µM (inactive) and the GI50 (HOP-92) was > 100 µM (inactive). The GI50 (HL-60) was > 100 µM (inactive), the GI50 (BT-549) was > 100 µM (inactive) and the GI50 (NCI-H23) was > 100 µM (inactive). The GI50 (SF-539) was > 100 µM (inactive), the GI50 (MDA-MB-231) was > 100 µM (inactive) and the GI50 (OVCAR-3) was > 100 µM (inactive). For the same compound, the GI50 (K562) was > 100 µM (inactive), the GI50 (M14) was > 100 µM (inactive) and the GI50 (UO-31) was > 100 µM (inactive). The GI50 (SK-MEL-5) was > 100 µM (inactive) and the GI50 (NCI-H226) was > 100 µM (inactive).

In the case of `CSC1(CC(=O)N2CCCCC2)C(=O)Nc2ccccc21` (centres undefined), the GI50 (SK-MEL-2) was > 100 µM (inactive), the GI50 (SW-620) was > 100 µM (inactive) and the GI50 (MCF7) was > 100 µM (inactive). The GI50 (COLO 205) was > 100 µM (inactive), the GI50 (Malme-3M) was > 100 µM (inactive) and the GI50 (BT-549) was > 100 µM (inactive). The GI50 (NCI-H23) was > 100 µM (inactive), the GI50 (SF-539) was > 100 µM (inactive) and the GI50 (OVCAR-3) was > 100 µM (inactive). The GI50 (K562) was > 100 µM (inactive), the GI50 (M14) was > 100 µM (inactive) and the GI50 (UO-31) was > 100 µM (inactive). For the same compound, the GI50 (HCC 2998) was > 100 µM (inactive), the GI50 (SK-MEL-5) was > 100 µM (inactive) and the GI50 (NCI-H226) was > 100 µM (inactive).

`O=c1[nH]c2ccc(CC(=S)N3CCOCC3)cc2o1` was tested, and the GI50 (SK-MEL-2) was > 100 µM (inactive), the GI50 (SW-620) was > 100 µM (inactive) and the GI50 (MCF7) was > 100 µM (inactive). For the same compound, the GI50 (COLO 205) was > 100 µM (inactive), the GI50 (Malme-3M) was > 100 µM (inactive) and the GI50 (HL-60) was 89.9 µM (inactive). For the same compound, the GI50 (BT-549) was > 100 µM (inactive), the GI50 (NCI-H23) was > 100 µM (inactive) and the GI50 (SF-539) was > 100 µM (inactive). For the same compound, the GI50 (MDA-MB-231) was > 100 µM (inactive), the GI50 (OVCAR-3) was > 100 µM (inactive) and the GI50 (M14) was > 100 µM (inactive). The GI50 (NCI-H226) was > 100 µM (inactive).

`CC(NNC(=O)c1ccncc1)c1cccc(C(F)(F)F)c1` (centres undefined) was tested, and the GI50 (SN12C) was > 100 µM (inactive), the GI50 (SK-MEL-2) was > 100 µM (inactive) and the GI50 (SW-620) was > 100 µM (inactive). The GI50 (MCF7) was > 100 µM (inactive), the GI50 (COLO 205) was > 100 µM (inactive) and the GI50 (HOP-92) was > 100 µM (inactive). For the same compound, the GI50 (Malme-3M) was > 100 µM (inactive), the GI50 (HL-60) was > 100 µM (inactive) and the GI50 (NCI-H23) was > 100 µM (inactive). The GI50 (SF-539) was > 100 µM (inactive), the GI50 (MDA-MB-231) was > 100 µM (inactive) and the GI50 (OVCAR-3) was 0.265 µM (active). The GI50 (K562) was > 100 µM (inactive), the GI50 (M14) was > 100 µM (inactive) and the GI50 (UO-31) was > 100 µM (inactive). For the same compound, the GI50 (HCC 2998) was > 100 µM (inactive), the GI50 (SK-MEL-5) was > 100 µM (inactive) and the GI50 (NCI-H226) was > 100 µM (inactive).

For `COC(=O)C1CCC(=O)N1CN(C(C)=O)c1cccc(O)c1` (centres undefined), the GI50 (SN12C) was > 100 µM (inactive), the GI50 (SK-MEL-2) was > 100 µM (inactive) and the GI50 (SW-620) was > 100 µM (inactive). The GI50 (MCF7) was > 100 µM (inactive), the GI50 (COLO 205) was > 100 µM (inactive) and the GI50 (HOP-92) was > 100 µM (inactive). For the same compound, the GI50 (Malme-3M) was > 100 µM (inactive), the GI50 (HL-60) was > 100 µM (inactive) and the GI50 (NCI-H23) was > 100 µM (inactive). The GI50 (SF-539) was > 100 µM (inactive), the GI50 (MDA-MB-231) was > 100 µM (inactive) and the GI50 (OVCAR-3) was > 100 µM (inactive). For the same compound, the GI50 (K562) was > 100 µM (inactive), the GI50 (M14) was > 100 µM (inactive) and the GI50 (UO-31) was > 100 µM (inactive). The GI50 (SK-MEL-5) was > 100 µM (inactive) and the GI50 (NCI-H226) was > 100 µM (inactive).

In the case of `CSc1nc(Nc2cccc(C(F)(F)F)c2)c2c(N)nn(C)c2n1`, the GI50 (SN12C) was > 100 µM (inactive), the GI50 (SK-MEL-2) was > 100 µM (inactive) and the GI50 (SW-620) was > 100 µM (inactive). The GI50 (COLO 205) was > 100 µM (inactive), the GI50 (Malme-3M) was 59.4 µM (inactive) and the GI50 (BT-549) was > 100 µM (inactive). The GI50 (NCI-H23) was > 100 µM (inactive), the GI50 (MDA-MB-231) was > 100 µM (inactive) and the GI50 (OVCAR-3) was > 100 µM (inactive). For the same compound, the GI50 (K562) was 84.9 µM (inactive), the GI50 (M14) was 76 µM (inactive) and the GI50 (UO-31) was > 100 µM (inactive). For the same compound, the GI50 (HCC 2998) was 89.7 µM (inactive), the GI50 (SK-MEL-5) was > 100 µM (inactive) and the GI50 (NCI-H226) was > 100 µM (inactive).

`CC(C)(O)/C=C\P(=O)(O)O` was tested, and the GI50 (SN12C) was > 100 µM (inactive), the GI50 (SK-MEL-2) was > 100 µM (inactive) and the GI50 (SW-620) was > 100 µM (inactive). For the same compound, the GI50 (MCF7) was > 100 µM (inactive), the GI50 (COLO 205) was > 100 µM (inactive) and the GI50 (HOP-92) was > 100 µM (inactive). The GI50 (Malme-3M) was > 100 µM (inactive), the GI50 (NCI-H23) was > 100 µM (inactive) and the GI50 (SF-539) was > 100 µM (inactive). The GI50 (OVCAR-3) was > 100 µM (inactive), the GI50 (K562) was > 100 µM (inactive) and the GI50 (M14) was > 100 µM (inactive). For the same compound, the GI50 (HCC 2998) was > 100 µM (inactive), the GI50 (SK-MEL-5) was > 100 µM (inactive) and the GI50 (NCI-H226) was > 100 µM (inactive).

`CC1CCC2(C)C(CC=C(C=O)C2(O)C=O)C12CO2` (centres undefined) was tested, and the GI50 (SN12C) was 2.6 µM (inactive), the GI50 (SK-MEL-2) was 2.52 µM (inactive) and the GI50 (SW-620) was 2.36 µM (inactive). The GI50 (COLO 205) was 1.33 µM (inactive), the GI50 (HOP-92) was 2.01 µM (inactive) and the GI50 (Malme-3M) was 2.64 µM (inactive). The GI50 (HL-60) was 0.877 µM (active), the GI50 (NCI-H23) was 2.25 µM (inactive) and the GI50 (SF-539) was 2.19 µM (inactive). The GI50 (OVCAR-3) was 0.481 µM (active), the GI50 (K562) was 1.7 µM (inactive) and the GI50 (M14) was 1.36 µM (inactive). The GI50 (UO-31) was 1.81 µM (inactive), the GI50 (HCC 2998) was 2.29 µM (inactive) and the GI50 (NCI-H226) was 0.665 µM (active).
